# Results as given in patent publication US20170275302A1, “INHIBITORS OF THE RENAL OUTER MEDULLARY POTASSIUM CHANNEL” (Merck Sharp & Dohme Corp., priority 2014, published 2017).
# Molecular target: T1, hROMK (hKir1.1) (Homo sapiens, UniProt P48048)
# T1 construct: expressed in transfected cells
# T1 sequence (P48048 1-391): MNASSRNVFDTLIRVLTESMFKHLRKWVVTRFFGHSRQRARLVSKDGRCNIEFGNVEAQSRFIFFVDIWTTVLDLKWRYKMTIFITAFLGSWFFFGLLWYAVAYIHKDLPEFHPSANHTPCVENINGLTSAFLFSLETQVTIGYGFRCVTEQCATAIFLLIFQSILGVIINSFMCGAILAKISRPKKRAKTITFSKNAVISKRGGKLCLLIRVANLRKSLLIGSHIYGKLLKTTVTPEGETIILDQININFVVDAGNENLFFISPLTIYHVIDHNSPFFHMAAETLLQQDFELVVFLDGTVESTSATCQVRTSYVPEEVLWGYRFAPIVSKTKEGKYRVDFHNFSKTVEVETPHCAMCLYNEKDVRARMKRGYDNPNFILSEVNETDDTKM
# Assay: Thallium Flux Assay (ROMK channel functional thallium flux assay, FLIPR-Tetra)
# Assay type: cell-based
# Conditions: HEK293 cells stably expressing hROMK (hKir1.1); FluxOR thallium flux, 30 min compound incubation; concentration inhibiting 50% of ROMK thallium flux signal
# Method: The following Thallium Flux Assay was performed on each of the final product compounds in the Examples.
# HEK293 cells stably expressing hROMK (hKir1.1) were grown at 37° C. in a 10% CO2 humidified incubator in complete growth media: Dulbecco's Modified Eagle Medium supplemented with non-essential amino acids, Penicillin/Streptomycin/Glutamine, G418 and FBS. At >80% confluency, the media was aspirated from the flask and rinsed with 10 mL calcium/magnesium-free phosphate buffered saline (PBS). 5 mL of 1× trypsin (prepared in Ca/Mg Free PBS) was added to T-225 flask and the flask was returned to 37° C./CO2 incubator for 2-3 minutes. To dislodge the cells, the side of the flask was gently banged with one's hand. The cells were completely titrated and then the cells were transferred to 25 mL complete media, centrifuged at 1,500 rpm for 6 min followed by resuspension in complete growth media, and the cell concentration was determined. For typical re-seeding, 4E6 cells/T-225 flask will attain >80% confluency in 4 days. Under ideal growth conditions and appropriate tissue culture practices, this cell line is stable for 40-45 passages.
# Compound Buffer (per microplate): 20 mL Probenecid/Assay Buffer; 0.3 mM ouabain (10 mM ouabain in water can be stored in amber bottle/aluminum foil at room temperature); Test compound
# Stimulant Buffer (prepared at 5× final concentration in 1× FluxOR™Chloride-Free Buffer): 7.5 mM thallium sulfate and 0.75 mM potassium sulfate (to give a final assay concentration of 3 mM Thallium/0.3 mM potassium). Store at 4° C. when not in use. If kept sterile, this solution is good for months.
# The ROMK channel functional thallium flux assay was performed in 384 wells, using the FLIPR-Tetra instrument. HEK-hKir1.1 cells were seeded in Poly-D-Lysine microplates and kept in a 37° C.-10% CO2 incubator overnight. On the day of the experiment, the growth media was replaced with the FluxOR™ reagent loading buffer and incubated, protected from light, at ambient temperature (23-25° C.) for 90 min. The loading buffer was replaced with assay buffer±test compound followed by 30 min incubation at ambient temperature, where the thallium/potassium stimulant was added to the microplate.
# • 1. Seed HEK-hKir1.1 cells (50 μl at 20,000 cells/well) in 384-well PDL coated Microplates • 2. Allow cells to adhere overnight in humidified 37° C./10% CO2 incubator • 3. Completely remove cell growth media from microplate and replace with 25 μl loading buffer • 4. Incubate Microplate at room temperature, protected form light, for 90 min • 5. Remove loading buffer and replace with 25 μl 1× Assay Buffer±test compound. • 6. Incubate microplate at room temperature, protected from light, for 30 min • 7. At FLIPR-Tetra 384: Add stimulant (thallium/potassium) solution to microplate and monitor fluorescence. Excitation=400 nm, Emission=460 & 580 nm. Collect data for ˜10 min.
# The fluorescence intensity of wells containing 3 μM of a standard control ROMK inhibitor of the present invention was used to define the ROMK-sensitive component of thallium flux. Fluorescence in the presence of test compounds was normalized to control values to provide % fluorescence change. IC50 values represent the concentration of compound that inhibited 50% of the ROMK thallium flux signal.
row,Structure (SMILES),IC50 [nM]
1,OC(CN1CCC2(CC1)CCN(c1ccc3nncn3n1)C2)c1ccc(-n2cnnn2)nc1 (racemic) [Example 52],84
2,Cc1c(C(O)CN2CCC3(CC2)CCN(c2ccc4nncn4n2)C3)ccc(C#N)c1F (racemic) [Example 53],18.7
3,"Cc1c(F)c(C#N)cc(F)c1C(O)CN1CCC2(CC1)CCN(c1ccc3nncn3n1)C2 (racemic) [Example 54, 4-(2-(2-([1,2,4]triazolo[4,3-b]pyridazin-6-yl)-2,8-diazaspiro[4.5]decan-8-yl)-1-hydroxyethyl)-2,5-difluoro-3-methylbenzonitrile]",35.9
4,Cc1cc(C#N)c(F)cc1C(O)CN1CCC2(CC1)CCN(c1ccc3nncn3n1)C2 (racemic) [Example 55],26
5,OC(CN1CCC2(CCN(c3ccc4nncn4n3)CC2)C1)c1ccc(-n2cnnn2)nc1 (racemic) [Example 69],72.6
6,"Cc1c([C@@H](O)CN2CCC3(CC2)CCN(c2nccn4nccc24)C3)ccc2c1COC2=O [Example 1, (R)-5-(1-hydroxy-2-(2-(pyrazolo[1,5-α]pyrazin-4-yl)-2,8-diazaspiro[4.5]decan-8-yl)ethyl)-4-methylisobenzofuran-1(3H)-one]",745
7,Cc1c([C@@H](O)CN2CCC3(CC2)CCN(c2nc4cc(C#N)ccc4[nH]2)C3)ccc2c1COC2=O [Example 2],132
8,Cc1c([C@@H](O)CN2CCC3(CC2)CCN(c2nccn4cnnc24)C3)ccc2c1COC2=O [Example 3],235
9,Cc1c([C@@H](O)CN2CCC3(CC2)CCN(c2nc4cc(F)ccc4o2)C3)ccc2c1COC2=O [Example 4],779
10,"Cc1c([C@@H](O)CN2CCC3(CC2)CCN(c2ccc4nncn4n2)C3)ccc2c1COC2=O [Example 5, (R)-5-(2-(2-([1,2,4]triazolo[4,3-b]pyridazin-6-yl)-2,8-diazaspiro[4.5]decan-8-yl)-1-hydroxyethyl)-4-methylisobenzofuran-1 (3H)-one]",74.7
11,Cc1c([C@@H](O)CN2CCC3(CC2)CCN(c2nc4c(S(N)(=O)=O)cccc4s2)C3)ccc2c1COC2=O [Example 6],304
12,Cc1c([C@@H](O)CN2CCC3(CC2)CCN(C2=Nc4ccccc4C4=NCCN42)C3)ccc2c1COC2=O [Example 7],620
13,Cc1c([C@@H](O)CN2CCC3(CC2)CCN(c2ccn4nccc4n2)C3)ccc2c1COC2=O [Example 8],246
14,Cc1c([C@@H](O)CN2CCC3(CC2)CCN(c2nn4cnnc4c4ccccc24)C3)ccc2c1COC2=O [Example 9],261
15,"Cc1c([C@@H](O)CN2CCC3(CC2)CCN(c2ccc4nnnn4n2)C3)ccc2c1COC2=O [Example 10, (R)-5-(1-hydroxy-2-(2-(tetrazolo[1,5-b]pyridazin-6-yl)-2,8-diazaspiro[4.5]decan-8-yl)ethyl)-4-methylisobenzofuran-1(3H)-one]",12.8
16,CSCc1nnc2ccc(N3CCC4(CCN(C[C@H](O)c5ccc6c(c5C)COC6=O)CC4)C3)nn12 [Example 11],47.7
17,Cc1c([C@@H](O)CN2CCC3(CC2)CCN(c2ccc4nnc(-c5ccco5)n4n2)C3)ccc2c1COC2=O [Example 13],411
18,Cc1c([C@@H](O)CN2CCC3(CC2)CCN(c2ccc4nnc(C5CC5)n4n2)C3)ccc2c1COC2=O [Example 14],204
19,Cc1c([C@@H](O)CN2CCC3(CC2)CCN(c2ccc4nnc(C(F)(F)F)n4n2)C3)ccc2c1COC2=O [Example 15],287

row,Structure (SMILES),IC50 [nM]
1,CCc1nnc2ccc(N3CCC4(CCN(C[C@H](O)c5ccc6c(c5C)COC6=O)CC4)C3)nn12 [Example 16],97.8
2,Cc1c([C@@H](O)CN2CCC3(CC2)CCN(c2ncc4c(C)n[nH]c4n2)C3)ccc2c1COC2=O [Example 17],486
3,Cc1c([C@@H](O)CN2CCC3(CCCN(c4nccn5cnnc45)C3)C2)ccc2c1COC2=O (some centres unmarked) [Example 18],339
4,Cc1c([C@@H](O)CN2CCC3(CC2)CCN(c2ccc4nnc(C)n4n2)C3)ccc2c1COC2=O [Example 19],74.7
5,COc1cc([C@@H](F)CN2CCC3(CC2)CCN(c2ccc4nncn4n2)C3)ncc1C#N [Example 21],236
6,COc1cc([C@H](CN2CCC3(CC2)CCN(c2ccc4nncn4n2)C3)OC(=O)C2CC2)ncc1C#N [Example 22],212
7,"COc1cc([C@H](CN2CCC3(CC2)CCN(c2ccc4nncn4n2)C3)OC(C)=O)ncc1C#N [Example 23, (S)-2-(2-([1,2,4]triazolo[4,3-β]pyridazin-6-yl)-2,8-diazaspiro[4.5]decan-8-yl)-1-(5-cyano-4-methoxypyridin-2-yl)ethyl acetate]",108
8,"Cc1c([C@@H](O)CN2CCC3(CC2)CCN(c2cnc4nncn4c2)C3)ccc2c1COC2=O [Example 24, (R)-5-(2-(2-([1,2,4]triazolo[4,3-a]pyrimidin-6-yl)-2,8-diazaspiro[4.5]decan-8-yl)-1-hydroxyethyl)-4-methylisobenzofuran-1(3H)-one]",850
9,"Cc1c([C@@H](O)CN2CCC3(CC2)CCN(c2ccc4nsnc4c2)C3)ccc2c1COC2=O [Example 25, (R)-5-(2-(2-(benzo[c][1,2,5]thiadiazol-5-yl)-2,8-diazaspiro[4.5]decan-8-yl)-1-hydroxyethyl)-4-methylisobenzofuran-1 (3H)-one]",342
10,"COC1OC(=O)c2ccc(N3CCC4(CCN(C[C@H](O)c5ccc6c(c5C)COC6=O)CC4)C3)cc21 (stereo partly drawn) [Example 26, 5-((1R)-1-hydroxy-2-(2-(3-methoxy-1-oxo-1,3-dihydroisobenzofuran-5-yl)-2,8-diazaspiro[4.5]decan-8-yl)ethyl)-4-methylisobenzofuran-1(3H)-one]",199
11,"Cc1c([C@@H](O)CN2CCC3(CC2)CCN(c2snc4ncccc24)C3)ccc2c1COC2=O [Example 27, (R)-5-(1-hydroxy-2-(2-(isothiazolo[3,4-b]pyridin-3-yl)-2,8-diazaspiro[4.5]decan-8-yl)ethyl)-4-methylisobenzofuran-1(3H)-one]",317
12,"Cc1c([C@@H](O)CN2CCC3(CC2)CCN(c2cc4cncnc4s2)C3)ccc2c1COC2=O [Example 28, (R)-5-(1-Hydroxy-2-(2-(thieno[2,3-d]pyrimidin-6-yl)-2,8-diazaspiro[4.5]decan-8-yl)ethyl)-4-methylisobenzofuran-1 (3H)-one]",261
13,"Cc1c([C@@H](O)CN2CCC3(CC2)CCN(c2cnc4snnc4c2)C3)ccc2c1COC2=O [Example 29, (R)-5-(2-(2-([1,2,3]thiadiazolo[5,4-b]pyridin-6-yl)-2,8-diazaspiro[4.5]decan-8-yl)-1-hydroxyethyl)-4-methylisobenzofuran-1(3H)-one]",301
14,Cc1c([C@@H](O)CN2CCC3(CC2)CCN(c2cnc4snnc4c2)C3=O)ccc2c1COC2=O [Example 30],83.2
15,Cc1c([C@@H](O)CN2CCC3(CC2)CCN(c2ccc4nsnc4c2)C3=O)ccc2c1COC2=O [Example 31],267
16,Cc1c([C@@H](O)CN2CCC3(CC2)CCN(c2cc4ccncc4s2)C3=O)ccc2c1COC2=O [Example 32],48.8
17,COc1cc2ccc(N3CCC4(CCN(C[C@H](O)c5ccc6c(c5C)COC6=O)CC4)C3=O)nc2cn1 [Example 33],284
18,Cc1c([C@@H](O)CN2CCC3(CC2)CCN(c2ccc4sccc4n2)C3=O)ccc2c1COC2=O [Example 34],427
19,Cc1c([C@@H](O)CN2CCC3(CC2)CCN(c2ccc4ncnn4c2)C3=O)ccc2c1COC2=O [Example 35],537
